Where a name gives a salt, the structure may show the parent alone. Read-outs that look alike come from different tables or passages of the source. Numbered stars: 1 amine (or outer) side, 2 acyl side, 3 side chain; on linkers, the order of the positions; unused ones are H or OH. Bridge positions count the residues as written; N and C are the ends. Square brackets hold non-standard residues; d marks the D form. Peptide text beside a SMILES is read from it. I, II: the chains in the order shown. * marks the point of attachment. Actinocin(9to1) = Cc1c2oc3c(C)ccc(C(=O)[*:1])c3nc-2c(C(=O)[*:2])c(N)c1=O; DOTA = O=C(O)CN1CCN(CC(=O)O)CCN(CC(=O)*)CCN(CC(=O)O)CC1; NMeV = CN[C@H](C(=O)O)C(C)C; Ahx = NCCCCCC(=O)O; Sar = CNCC(=O)O
Assays:
[1] = cited from earlier work
[2] = cited from earlier work; remark: listed apart in the source
MB-231 cells = experiment: Scatchard analysis, MB-231; type: binding, human
Description: (§1) Scatchard Analysis. Scatchard analysis was performed in human cancer cells by a receptor-binding assay using ^125I-STh and 6-Ahx-Phe^19-STh or Phe^19-STh. […] After the incubation, the reaction medium was aspirated and cells were washed three times with media. The radioactivity bound to the cells was counted in a Packard Riastar gamma counting system. The experiment was performed in duplicate and average values were used for the calculations. The total bound peptide (B, both radioactive and non-radioactive), was obtained by multiplying the fraction of bound labeled peptide with the total concentration of peptide (both radioactive and non-radioactive). The total free peptide (F, both radioactive and non-radioactive) was obtained by substracting the total bound peptide from the total concentration of peptide. The non-specific binding was neglected in the calculations as it was <3%. The ratio of concentration of total bound and total free peptide (B/F) was plotted vs. total bound peptide (B) to determine the Kd (−1/slope) and Bmax (X-intercept) values. The number of receptors per cell was calculated from the Bmax (Table 4).

T-47D cells = experiment: Scatchard analysis, T-47D; type: binding, human
Description: as §1

Hodgkin's disease = conditions: cited from earlier work
multiple myeloma = conditions: oral administration; cited from earlier work
[3] = cited from earlier work; remark: listed apart in the source
[4] = in vivo; cited from earlier work
[5] = in vivo; cited from earlier work; remark: listed apart in the source
[6] = oral radioactive lomustine, cited from earlier work
[7] = tested on: MCF-7 (Human) breast cancer cells; experiment: In vitro competitive cell binding assay, MCF-7; conditions: competitive binding vs. ^125I-Tyr^5-6-Ahx-Phe^19-STh or ^125I-Tyr^5-Phe^19-STh
Description: (§2) In Vitro Competitive Cell Binding Assay. The IC50 values of both metallated and non-metallated STh conjugates were determined in human cancer cells by a competitive displacement cell binding assay using ^125I-STh (^125I-Tyr^5-Phe^19-STh or ^125I-Tyr^5-6-Ahx-Phe^19-STh). […] After the incubation, the reaction medium was aspirated and cells were washed three times with media. The radioactivity bound to the cells was counted in a Packard Riastar gamma counting system. The ^125I-STh bound to cells was plotted vs. increasing concentrations of STh conjugate to determine the respective IC50 values (Table 3). For statistical considerations, three separate in vitro cell binding experiments with each conjugate were performed in duplicate.

[8] = tested on: CFPAC-1 (Human) pancreatic cancer cells; experiment: In vitro competitive cell binding assay, CFPAC-1; conditions: competitive binding vs. ^125I-Tyr^5-6-Ahx-Phe^19-STh or ^125I-Tyr^5-Phe^19-STh
Description: as §2

[9] = tested on: PC-3 (Human) prostate cancer cells; experiment: In vitro competitive cell binding assay, PC-3; conditions: competitive binding vs. ^125I-Tyr^5-6-Ahx-Phe^19-STh or ^125I-Tyr^5-Phe^19-STh
Description: as §2

[10] = tested on: A375 (Human) melanoma cells; experiment: In vitro competitive cell binding assay, A375; conditions: competitive binding vs. ^125I-Tyr^5-6-Ahx-Phe^19-STh or ^125I-Tyr^5-Phe^19-STh
Description: as §2

[11] = tested on: MB-231 (Human) breast cancer cells; experiment: In vitro competitive cell binding assay, MB-231; conditions: competitive binding vs. ^125I-Tyr^5-6-Ahx-Phe^19-STh or ^125I-Tyr^5-Phe^19-STh; read-out: In vitro IC50, Breast MB-231 (Human)
Description: as §2

[12] = tested on: T47D (Human) breast cancer cells; experiment: In vitro competitive cell binding assay, T47D; conditions: competitive binding vs. ^125I-Tyr^5-6-Ahx-Phe^19-STh or ^125I-Tyr^5-Phe^19-STh; read-out: In vitro IC50, Breast T47D (Human)
Description: as §2

[13] = in vivo, cited from earlier work
[14] = humans, cited from earlier work
[15] = tested on: chronic myelogenous leukemia; conditions: previously untreated chronic myelogenous leukemia; cited from earlier work
[16] = in vivo; cited from earlier work; remark: listed apart in the source
[17] = single oral doses of about 0.6 mg/kg to about […]
[18] = at equilibrium, calculated using Bmax value

O=C(O)CCCc1ccc(N(CCCl)CCCl)cc1 [Chlorambucil, 4-[bis(2-chlorethyl)amino] benzenebutanoic acid]
absorption from the gastrointestinal tract ([1]; oral, tablet): rapidly and completely absorbed
terminal half-life of the parent drug [1, 17]: about 1.5 hours
time to peak plasma chlorambucil levels [1, 17]: within one hour

CC[C@]1(O)C[C@H]2CN(CCc3c([nH]c4ccccc34)[C@@](C(=O)OC)(c3cc4c(cc3OC)N(C=O)[C@H]3[C@@](O)(C(=O)OC)[C@H](OC(C)=O)[C@]5(CC)C=CCN6CC[C@]43[C@@H]65)C2)C1 [vincristine]
terminal half-life (plasma) ([2]; in vivo): about 24 hours

^125I-Tyr^5-6-Ahx-Phe^19-STh
Kd (MB-231 cells; Scatchard plot): 4 nM
No. of receptors per cell (MB-231 cells; [18]): 112,786
Kd (T-47D cells; Scatchard plot): 4.4 nM
No. of receptors per cell (T-47D cells; [18]): 41,758

CC[C@]1(O)C[C@@H]2CN(CCc3c([nH]c4ccccc34)[C@@](C(=O)OC)(c3cc4c(cc3OC)N(C)[C@H]3[C@@](O)(C(=O)OC)[C@H](OC(C)=O)[C@]5(CC)C=CCN6CC[C@]43[C@@H]65)C2)C1 [vinblastine]
half-life of disappearance from plasma after distribution ([2]; intravenous injection): ~20 h
half-life of disappearance from plasma after distribution (first given) ([2]; intravenous injection): approximately 1 hours
cases with significant improvement (Hodgkin's disease): 50 to 90%

N[C@@H](Cc1ccc(N(CCCl)CCCl)cc1)C(=O)O [Melphalan, 4-[bis(2-chloroethyl)amino]-L-phenylalanine]
patients with multiple myeloma showing a favorable response (multiple myeloma): about one third to one half
solubility in water [3]: insoluble in water

Cc1c2oc3c(C)ccc(C(=O)N[C@@H]4C(=O)N[C@H](C(C)C)C(=O)N5CCC[C@H]5C(=O)N(C)CC(=O)N(C)[C@@H](C(C)C)C(=O)O[C@@H]4C)c3nc-2c(C(=O)N[C@@H]2C(=O)N[C@H](C(C)C)C(=O)N3CCC[C@H]3C(=O)N(C)CC(=O)N(C)[C@@H](C(C)C)C(=O)O[C@@H]2C)c(N)c1=O [Actinomycin D] (I: T[dV]P[Sar][NMeV] / II: T[dV]P[Sar][NMeV]; ester I:1-I:C, II:1-II:C; linker I:N-II:N via Actinocin(9to1))
dose excreted intact into the bile [4]: Half of the dose
dose excreted intact into the urine [4]: 10%
half-life [4]: about 36 hours
passage of the blood-brain barrier [4]: does not pass the blood-brain barrier

N.N.[Cl][Pt][Cl] [Cisplatin]
oral absorption [5]: not absorbed orally

O=NN(CCCl)C(=O)NC1CCCCC1 [Lomustine, 1-(2-chloro-ethyl)-3-cyclohexyl-1 nitrosourea]
radioactivity excreted in the form of degradation products within 24 hours ([6]; about 30 mg/m^2 to 100 mg/m^2): about half
serum half-life of the metabolites [6]: about 16 hours to about 2 days
solubility in 10% ethanol ([3]; 10% ethanol): about 0.05 mg/mL
solubility in absolute alcohol ([3]; absolute alcohol): about 70 mg/mL
ionization at physiological pH ([3]; physiological pH): relatively unionized
solubility in water [3]: less than 0.05 mg/mL

O=NN(CCCl)C(=O)NCCCl [Carmustine, 1,3 bis(2-chloroethyl)-1-nitrosourea]
solubility in alcohol and lipids ([3]; alcohol and lipids): highly soluble
solubility in water [3]: poorly soluble in water

CC(C)C[C@@H]1NC(=O)[C@H](CCC(=O)O)NC(=O)[C@@H]2CSSC[C@@H]3NC(=O)[C@H](C)NC(=O)[C@@H]4CCCN4C(=O)[C@H](CC(N)=O)NC(=O)[C@H](CSSC[C@H](NC(=O)[C@H](Cc4ccc(O)cc4)NC(=O)[C@H](CC(N)=O)NC(=O)[C@H](CO)NC(=O)[C@H](CO)NC(=O)[C@H](CC(N)=O)NC(=O)CCCCCNC(=O)CN4CCN(CC(=O)O)CCN(CC(=O)O)CCN(CC(=O)O)CC4)C(=O)N2)NC(=O)[C@H](CSSC[C@@H](C(=O)N[C@@H](Cc2ccccc2)C(=O)O)NC(=O)CNC(=O)[C@H]([C@@H](C)O)NC3=O)NC1=O [DOTA-6-Ahx-Phe^19-STh] ({DOTA-Ahx}-NSSNYCCELCCNPACTGCF-OH; disulfide 6-11, 7-15, 10-18)
IC50 [7]: 14.1 nM
IC50 [8]: 2.8 nM
IC50 [9]: 7 nM
IC50 [10]: 1.5 nM
IC50 [11]: 3.9 nM
IC50 [12]: 0.5 nM

COc1cccc2c1C(=O)c1c(O)c3c(c(O)c1C2=O)C[C@@](O)([C@H](C)O)C[C@@H]3O[C@H]1C[C@H](N)[C@H](O)[C@H](C)O1 [daunorubicinol]
half-life of active metabolite [13]: about 27 hours

CO[C@@]12[C@H](COC(N)=O)C3=C(C(=O)C(C)=C(N)C3=O)N1C[C@@H]1N[C@@H]12 [Mitomycin]
time required to reduce the serum concentration by about 50% ([14]; 30 mg bolus injection): 17 min
dose excreted unchanged in the urine [14]: Approximately 10%

COc1cccc2c1C(=O)c1c(O)c3c(c(O)c1C2=O)C[C@@](O)(C(C)=O)C[C@@H]3O[C@H]1C[C@H](N)[C@H](O)[C@H](C)O1 [Daunorubicin, 5,12-Naphthacenedione, (8S-cis)-8-acetyl-10-[(3-amino-2,3,6-trideoxy-a-L-lyxo-hexanopyranosyl)oxy]-7,8,9,10-tetrahydro-6,8,11-trihydroxy-10-methoxy-, hydrochloride]
oral absorption ([13]; po): poor
half-life of elimination [13]: about 19 hours

CC(C)C[C@@H]1NC(=O)[C@H](CCC(=O)O)NC(=O)[C@@H]2CSSC[C@@H]3NC(=O)[C@H](C)NC(=O)[C@@H]4CCCN4C(=O)[C@H](CC(N)=O)NC(=O)[C@H](CSSC[C@H](NC(=O)[C@H](Cc4ccc(O)cc4)NC(=O)[C@H](CC(N)=O)NC(=O)[C@H](CO)NC(=O)[C@H](CO)NC(=O)[C@H](CC(N)=O)NC(=O)CN4CCN(CC(=O)O)CCN(CC(=O)O)CCN(CC(=O)O)CC4)C(=O)N2)NC(=O)[C@H](CSSC[C@@H](C(=O)N[C@@H](Cc2ccccc2)C(=O)O)NC(=O)CNC(=O)[C@H]([C@@H](C)O)NC3=O)NC1=O [In-DOTA-Phe^19-STh] ({DOTA}-NSSNYCCELCCNPACTGCF-OH; disulfide 6-11, 7-15, 10-18)
IC50 [12]: 8.9 ± 2.2 nM

CS(=O)(=O)OCCCCOS(C)(=O)=O [Busulfan, 1,4-butanediol dimethanesulfonate]
adults obtaining hematologic remission with regression or stabilization of organomegaly [15]: Approximately 90%

COc1cccc2c1C(=O)c1c(O)c3c(c(O)c1C2=O)C[C@@](O)(C(=O)CO)C[C@@H]3O[C@H]1C[C@H](N)[C@H](O)[C@H](C)O1 [Doxorubicin, 5,12-Naphthacenedione, (8s-cis)-10-[(3-amino-2,3,6-trideoxy-a-L-lyxo-hexopyranosyl)oxy]-7,8,9,10-tetrahydro-6,8, 11-trihydroxy-8-(hydroxyacetyl)-1-methoxy-hydrochloride]
absorption [16]: absorbed poorly
elimination half-life [16]: about 30 hours
